From ChEMBL document CHEMBL4842348 (J Med Chem, 2021)

experiment: Lipophilicity, logD of the compound at pH 7.3 by HPLC analysis; assay type: physicochemical; settings: buffer

| Compound | logD |
| --- | --- |
| COc1cc(F)c(C(C)C)cc1-c1ccc(C(F)(F)F)cc1[C@@H]1CC[C@H]2[C@@H](c3cc(C(F)(F)F)cc(C(F)(F)F)c3)OC(=O)N12 | 7.1 |
| COc1cc(F)c(C(C)C)cc1-c1ccc(C(F)(F)F)cc1[C@@H]1CC[C@H]2[C@@H](c3cc(C)cc(C(F)(F)F)c3)OC(=O)N12 | 7 |
| COc1cc(F)c(C(C)C)cc1-c1ccc(C(F)(F)F)cc1[C@@H]1CC[C@H]2[C@@H](c3cc(F)cc(C(F)(F)F)c3)OC(=O)N12 | 6.3 |
| COc1cc(F)c(C(C)C)cc1-c1ccc(C(F)(F)F)cc1[C@@H]1CC[C@H]2[C@@H](c3cccc(C(F)(F)F)c3)OC(=O)N12 | 6.1 |
| COc1cc(F)c(C(C)C)cc1-c1ccc(C(F)(F)F)cc1[C@@H]1CC[C@H]2[C@@H](c3cc(Cl)cc(Cl)c3)OC(=O)N12 | 6.1 |
| COc1cc(F)c(C(C)C)cc1-c1ccc(C(F)(F)F)cc1[C@@H]1CC[C@H]2[C@@H](c3cc(Cl)cc(C(F)(F)F)c3)OC(=O)N12 | 6.5 |
| COc1cc(F)c(C(C)C)cc1-c1cnc(N(C)C)cc1[C@@H]1CC[C@H]2[C@@H](c3cc(C(F)(F)F)cc(C(F)(F)F)c3)OC(=O)N12 | 7 |
| COc1cc(F)c(C(C)C)cc1-c1ccc(F)cc1[C@@H]1CC[C@H]2[C@@H](c3cc(C(F)(F)F)cc(C(F)(F)F)c3)OC(=O)N12 | 7 |
| COc1cc(F)c(C(C)C)cc1-c1ccc(N(C)C)nc1[C@@H]1CC[C@H]2[C@@H](c3cc(C(F)(F)F)cc(C(F)(F)F)c3)OC(=O)N12 | 6.9 |
| COc1cc(F)c(C(C)C)cc1-c1cnc(N(C)C)nc1[C@@H]1CC[C@H]2[C@@H](c3cc(C(F)(F)F)cc(C(F)(F)F)c3)OC(=O)N12 | 7 |
| COc1ccc(-c2ccc(C(=O)O)cc2C)cc1-c1cnc(N(C)C)nc1CN1C(=O)O[C@H](c2cncc(C(F)(F)F)c2)[C@@H]1C | 3.3 |
| COc1ccc(-c2ccc(C(=O)O)cc2C)cc1-c1cnc(N(C)C)nc1CN1C(=O)O[C@H](c2cc(F)cc(F)c2)[C@@H]1C | 3.8 |
| COc1ccc(-c2ccc(C(=O)O)cc2C)cc1-c1cnc(N2CCCC2)nc1CN1C(=O)O[C@H](c2cc(C(F)(F)F)cc(C(F)(F)F)c2)[C@@H]1C | 5.2 |
| COc1ccc(-c2ccc(C(=O)O)cc2C)cc1-c1cnc(N(C)C)nc1CN1C(=O)O[C@H](c2ccc(OC(F)(F)F)cc2)[C@@H]1C | 4.3 |
| COc1ncc(-c2ccc(C(=O)O)cc2C)cc1-c1ccc(C(F)(F)F)cc1CN1C(=O)O[C@H](c2cc(C(F)(F)F)cc(C(F)(F)F)c2)[C@@H]1C | 5.4 |
| COc1ncc(-c2ccc(C(=O)O)cc2C)cc1-c1cnc(C(F)(F)F)nc1CN1C(=O)O[C@H](c2cc(C(F)(F)F)cc(C(F)(F)F)c2)[C@@H]1C | 4.9 |
| COc1ccc(-c2ccc(C(=O)O)cc2C)cc1-c1cnc(N(C)C)nc1CN1C(=O)O[C@H](c2cc(Cl)cc(C(F)(F)F)c2)[C@@H]1C | 4.6 |
| COc1ccc(-c2ccc(C(=O)O)cc2C)cc1-c1cnc(N(C)C)nc1CN1C(=O)O[C@H](c2ccnc(C(F)(F)F)c2)[C@@H]1C | 3.2 |
| COc1ccc(-c2ccc(C(=O)O)cc2C)cc1-c1cnc(N(C)C)nc1CN1C(=O)O[C@H](c2cccc(Cl)c2)[C@@H]1C | 4 |
| COc1ccc(-c2ccc(C(=O)O)cc2C)cc1-c1cnc(N(C)C)nc1CN1C(=O)O[C@H](c2cccc(OC(F)(F)F)c2)[C@@H]1C | 4.3 |
| COc1ccc(-c2ccc(C(=O)O)cc2C)cc1-c1cnc(N(C)C)nc1CN1C(=O)O[C@H](c2cccc(C(F)(F)F)n2)[C@@H]1C | 3.8 |
| COc1ccc(-c2ccc(C(=O)O)cc2C)cc1-c1cnc(C(F)(F)F)cc1CN1C(=O)O[C@H](c2cc(C(F)(F)F)cc(C(F)(F)F)c2)[C@@H]1C | 4.7 |
| COc1ccc(-c2ccc(C(=O)O)cc2C)cc1-c1cnc(N(C)C)nc1CN1C(=O)O[C@H](c2cccc(C(F)(F)F)c2)[C@@H]1C | 4.1 |
| COc1ncc(-c2ccc(C(=O)O)cc2C)cc1-c1cnc(C(F)(F)F)cc1CN1C(=O)O[C@H](c2cc(C(F)(F)F)cc(C(F)(F)F)c2)[C@@H]1C | 4.5 |
| COc1ccc(-c2ccc(C(=O)O)cc2C)cc1-c1cnc(N(C)C)nc1CN1C(=O)O[C@H](c2cc(Cl)cc(Cl)c2)[C@@H]1C | 4.6 |
